According to article PMC8016998, “Identification of potential therapeutic antimicrobial peptides against Acinetobacter baumannii in a mouse model of pneumonia” (Scientific Reports, 2021):
Where two headings read alike, the source gives them in different places. No end group written: not given here.

Legend:
[1] = tested on: Acinetobacter baumannii 17,978; assay type: cell-based;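 further: CLSI broth microdilution in 96-well polypropylene plates, MBC taken as lowest concentration giving no growth when clear wells were subcultured on LB agar for 24 h at 37 °C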
Method: (§2) MBC were determined by extending the MIC procedure in sterilized 96-well polypropylene microtiter plates according to the broth microdilution guidelines of the Clinical and Laboratory Standards Institute with some modification[47]. […] In addition, 10 µL was drawn from each well with no visible turbidity onto LB agar plates and incubated for 24 h at 37 °C. The lowest concentration showing no visible growth on agar subculture was used as the MBC value. All experiments were performed in triplicate.

[2] = tested on: Acinetobacter baumannii 19,606; assay type: cell-based
[3] = tested on: MDRAB clinical strain J49; assay type: cell-based, Acinetobacter baumannii
MDRAB clinical strain K2 = assay type: cell-based, Acinetobacter baumannii
[4] = tested on: MDRAB clinical strain Y92; assay type: cell-based, Acinetobacter baumannii
[5] = tested on: MDRAB clinical strain W11; assay type: cell-based, Acinetobacter baumannii
Method: as §2

[6] = tested on: MDRAB clinical strain U80; assay type: cell-based, Acinetobacter baumannii
[7] = tested on: MDRAB clinical strain U95; assay type: cell-based, Acinetobacter baumannii
[8] = tested on: MDRAB clinical strain O59; assay type: cell-based, Acinetobacter baumannii
Method: as §2

[9] = tested on: MDRAB clinical strain D29; assay type: cell-based, Acinetobacter baumannii
[10] = tested on: MDRAB clinical strain L87; assay type: cell-based, Acinetobacter baumannii
[11] = tested on: MDRAB clinical strain AO80; assay type: cell-based, Acinetobacter baumannii
Method: as §2

[12] = tested on: MDRAB clinical strain AS40; assay type: cell-based, Acinetobacter baumannii
Method: as §2

[13] = tested on: MDRAB clinical strain AK29; assay type: cell-based, Acinetobacter baumannii
Method: as §2

[14] = tested on: MDRAB clinical strain AK61; assay type: cell-based, Acinetobacter baumannii
Method: as §2

[15] = tested on: MDRAB clinical strain AE5; assay type: cell-based, Acinetobacter baumannii
Method: as §2

[16] = tested on: MDRAB clinical strain AE6; assay type: cell-based, Acinetobacter baumannii
Method: as §2

[17] = tested on: MDRAB clinical strain AF11; assay type: cell-based, Acinetobacter baumannii
[18] = tested on: MDRAB clinical strain AF12; assay type: cell-based, Acinetobacter baumannii
[19] = tested on: MDRAB clinical strain AF93; assay type: cell-based, Acinetobacter baumannii
[20] = tested on: MDRAB clinical strain AG51; assay type: cell-based, Acinetobacter baumannii
[21] = tested on: MDRAB clinical strain AN10; assay type: cell-based, Acinetobacter baumannii
[22] = tested on: MDRAB clinical strain AL87; assay type: cell-based, Acinetobacter baumannii
Method: as §2

[23] = tested on: MDRAB clinical strain AZ93; assay type: cell-based, Acinetobacter baumannii
MDRAB strain BF50 = assay type: cell-based, Acinetobacter baumannii; details: 24 h
Method: (§1) All AMPs and TP4 derivatives used in this study were synthesized by Kelowna International Scientific Inc. (Taipei City, Taiwan) with more than 95% purity, and their molecular weights were verified by mass spectrum analysis. MBC were determined by extending the MIC procedure in sterilized 96-well polypropylene microtiter plates according to the broth microdilution guidelines of the Clinical and Laboratory Standards Institute with some modification. Briefly, 5 × 10^5 CFU/mL of bacteria were inoculated in LB medium containing AMPs or antibiotic at final concentrations ranging from 512 to 1 μg/mL (from serial twofold dilutions). After incubation for 24 h at 37 °C, the lowest concentration showing no visible growth was used as the MIC value. In addition, 10 µL was drawn from each well with no visible turbidity onto LB agar plates and incubated for 24 h at 37 °C. The lowest concentration showing no visible growth on agar subculture was used as the MBC value. All experiments were performed in triplicate.

MDRAB strain MO91 = assay type: cell-based, Acinetobacter baumannii; details: 24 h
Method: as §1

[24] = 10 µL from wells without turbidity onto LB agar, 24 h at 37 °C, triplicate

## FIHHIIGGLFSAGKAIHRLIRRRRR [TP4]
[1]; 17,978, 24 h
  MBC: 16 µg/mL
  MIC: 16 µg/mL
[2]; 19,606, 24 h
  MBC: 16 µg/mL
  MIC: 16 µg/mL
[3]; 24 h
  MBC: 16 µg/mL
  MIC: 16 µg/mL
MDRAB clinical strain K2; 24 h
  MBC: 32 µg/mL
  MIC: 16 µg/mL
[4]; 24 h
  MBC: 16 µg/mL
  MIC: 16 µg/mL
[5]; 24 h
  MBC: 16 µg/mL
  MIC: 16 µg/mL
[6]; 24 h
  MBC: 32 µg/mL
  MIC: 32 µg/mL
[7]; 24 h
  MBC: 64 µg/mL
  MIC: 32 µg/mL
[8]; 24 h
  MBC: 32 µg/mL
  MIC: 32 µg/mL
[9]; 24 h
  MBC: 32 µg/mL
  MIC: 32 µg/mL
[10]; 24 h
  MBC: 32 µg/mL
  MIC: 32 µg/mL
[11]; 24 h
  MBC: 32 µg/mL
  MIC: 32 µg/mL
[12]; 24 h
  MBC: 32 µg/mL
  MIC: 32 µg/mL
[13]; 24 h
  MBC: 16 µg/mL
  MIC: 16 µg/mL
[14]; 24 h
  MBC: 32 µg/mL
  MIC: 32 µg/mL
[15]; 24 h
  MBC: 32 µg/mL
  MIC: 16 µg/mL
[16]; 24 h
  MBC: 16 µg/mL
  MIC: 16 µg/mL
[17]; 24 h
  MBC: 16 µg/mL
  MIC: 16 µg/mL
[18]; 24 h
  MBC: 16 µg/mL
  MIC: 16 µg/mL
[19]; 24 h
  MBC: 16 µg/mL
  MIC: 16 µg/mL
[20]; 24 h
  MBC: 16 µg/mL
  MIC: 8 µg/mL
[21]; 24 h
  MBC: 8 µg/mL
  MIC: 8 µg/mL
[22]; 24 h
  MBC: 16 µg/mL
  MIC: 16 µg/mL
[23]; 24 h
  MBC: 16 µg/mL
  MIC: 16 µg/mL
MDRAB strain BF50
  MBC: 16 µg/mL
  MIC: 16 µg/mL
MDRAB strain MO91
  MBC: 32 µg/mL
  MIC: 16 µg/mL

## GLFGKLIKKFGRKAISYAVKKARGKH [Latarcin 2a]
[1]; [24]
  MBC: 16 µg/mL
[1]; broth microdilution (CLSI, modified), LB medium, 5 × 10^5 CFU/mL, 24 h at 37 °C, lowest concentration with no visible growth, triplicate
  MIC: 16 µg/mL
[2]; [24]
  MBC: 16 µg/mL
[2]; broth microdilution (CLSI, modified), LB medium, 5 × 10^5 CFU/mL, 24 h at 37 °C, triplicate
  MIC: 16 µg/mL
[3]; strain J49, broth microdilution, LB, 24 h 37 °C
  MIC: 64 µg/mL
[3]; strain J49, subculture on LB agar, 24 h 37 °C
  MBC: 64 µg/mL
MDRAB clinical strain K2; strain K2, broth microdilution, LB, 24 h 37 °C
  MIC: 64 µg/mL
MDRAB clinical strain K2; strain K2, subculture on LB agar, 24 h 37 °C
  MBC: 64 µg/mL
[4]; strain Y92, broth microdilution, LB, 24 h 37 °C
  MIC: 8 µg/mL
[4]; strain Y92, subculture on LB agar, 24 h 37 °C
  MBC: 8 µg/mL
[5]; strain W11, broth microdilution, LB, 24 h 37 °C
  MIC: 8 µg/mL
[5]; strain W11, subculture on LB agar, 24 h 37 °C
  MBC: 8 µg/mL
[6]; strain U80, broth microdilution, LB, 24 h 37 °C
  MIC: 16 µg/mL
[6]; strain U80, subculture on LB agar, 24 h 37 °C
  MBC: 16 µg/mL
[7]; strain U95, broth microdilution, LB, 24 h 37 °C
  MIC: 16 µg/mL
[7]; strain U95, subculture on LB agar, 24 h 37 °C
  MBC: 16 µg/mL
[8]; strain O59, broth microdilution, LB, 24 h 37 °C
  MIC: 16 µg/mL
[8]; strain O59, subculture on LB agar, 24 h 37 °C
  MBC: 16 µg/mL
[9]; strain D29, broth microdilution, LB, 24 h 37 °C
  MIC: 8 µg/mL
[9]; strain D29, subculture on LB agar, 24 h 37 °C
  MBC: 16 µg/mL
[10]; strain L87, broth microdilution, LB, 24 h 37 °C
  MIC: 16 µg/mL
[10]; strain L87, subculture on LB agar, 24 h 37 °C
  MBC: 16 µg/mL
[11]; strain AO80, broth microdilution, LB, 24 h 37 °C
  MIC: 8 µg/mL
[11]; strain AO80, subculture on LB agar, 24 h 37 °C
  MBC: 8 µg/mL
[12]; strain AS40, broth microdilution, LB, 24 h 37 °C
  MIC: 8 µg/mL
[12]; strain AS40, subculture on LB agar, 24 h 37 °C
  MBC: 8 µg/mL
[13]; strain AK29, broth microdilution, LB, 24 h 37 °C
  MIC: 8 µg/mL
[13]; strain AK29, subculture on LB agar, 24 h 37 °C
  MBC: 8 µg/mL
[14]; strain AK61, broth microdilution, LB, 24 h 37 °C
  MIC: 8 µg/mL
[14]; strain AK61, subculture on LB agar, 24 h 37 °C
  MBC: 8 µg/mL
[15]; strain AE5, broth microdilution, LB, 24 h 37 °C
  MIC: 8 µg/mL
[15]; strain AE5, subculture on LB agar, 24 h 37 °C
  MBC: 8 µg/mL
[16]; strain AE6, broth microdilution, LB, 24 h 37 °C
  MIC: 8 µg/mL
[16]; strain AE6, subculture on LB agar, 24 h 37 °C
  MBC: 8 µg/mL
[17]; strain AF11, broth microdilution, LB, 24 h 37 °C
  MIC: 8 µg/mL
[17]; strain AF11, subculture on LB agar, 24 h 37 °C
  MBC: 8 µg/mL
[18]; strain AF12, broth microdilution, LB, 24 h 37 °C
  MIC: 8 µg/mL
[18]; strain AF12, subculture on LB agar, 24 h 37 °C
  MBC: 8 µg/mL
[19]; strain AF93, broth microdilution, LB, 24 h 37 °C
  MIC: 8 µg/mL
[19]; strain AF93, subculture on LB agar, 24 h 37 °C
  MBC: 8 µg/mL
[20]; strain AG51, broth microdilution, LB, 24 h 37 °C
  MIC: 4 µg/mL
[20]; strain AG51, subculture on LB agar, 24 h 37 °C
  MBC: 4 µg/mL
[21]; strain AN10, broth microdilution, LB, 24 h 37 °C
  MIC: 4 µg/mL
[21]; strain AN10, subculture on LB agar, 24 h 37 °C
  MBC: 4 µg/mL
[22]; strain AL87, broth microdilution, LB, 24 h 37 °C
  MIC: 4 µg/mL
[22]; strain AL87, subculture on LB agar, 24 h 37 °C
  MBC: 4 µg/mL
[23]; strain AZ93, broth microdilution, LB, 24 h 37 °C
  MIC: 8 µg/mL
[23]; strain AZ93, subculture on LB agar, 24 h 37 °C
  MBC: 8 µg/mL
